As a reminder, the inhibition is the drop in the measured response relative to a control, in per cent.

SMILES strings stand for the structures. Calls of active or inactive are those of the source. The calls are words filed in the database; no cut-off is given here.

This note sets out measurements from ChEMBL document CHEMBL3046262, “Inhibitory Activity of Indanofan and Its Enantiomers on Biosynthesis of Very-Long-Chain Fatty Acids” (J Pestic Sci, 2005).

The test system of experiment [1] is Allium ampeloprasum. Put plainly: Inhibition of very long chain fatty acid elongase in Allium ampeloprasum microsome using C18:0 as substrate and [14C]-malonate at 1 x 10^-8 M after 10 to 20 min by liquid scintillation counting. In kind it is microsomes.
Experiment [2] concerns Allium ampeloprasum. The experiment can be described thus: Inhibition of very long chain fatty acid elongase in Allium ampeloprasum microsome using C18:0 as substrate and [14C]-malonate at 3 x 10^-8 M after 10 to 20 min by liquid scintillation counting. Type of experiment: microsomes.
A short description of experiment [3]: Inhibition of very long chain fatty acid elongase in Allium ampeloprasum microsome using C18:0 as substrate and [14C]-malonate after 10 to 20 min by liquid scintillation counting. Type of experiment: microsomes. The conditions noted are these: read-out: I50.
For experiment [4], the system named is Allium ampeloprasum. The experiment can be described thus: Inhibition of very long chain fatty acid elongase in Allium ampeloprasum microsome using C18:0 as substrate and [14C]-malonate at 3 x 10^-9 M after 10 to 20 min by liquid scintillation counting. In kind it is microsomes.
The subject of experiment [5] is Echinochloa crus-galli. The experiment can be described thus: Herbicidal activity against Echinochloa crus-galli (barnyard grass) by pot assay. Type of experiment: functional.
For experiment [6], the system named is Allium ampeloprasum. The experiment can be described thus: Inhibition of very long chain fatty acid elongase in Allium ampeloprasum microsome using C18:0 as substrate and [14C]-malonate at 1 x 10^-7 M after 10 to 20 min by liquid scintillation counting. In kind it is microsomes.
Experiment [7] in a line: Inhibition of very long chain fatty acid elongase in Allium ampeloprasum microsome using C20:0 as substrate and [14C]-malonate after 10 to 20 min by liquid scintillation counting. To be noted: read-out: I50. Type of experiment: microsomes.
The test system of experiment [8] is Allium ampeloprasum. The experiment can be described thus: Inhibition of very long chain fatty acid elongase-mediated elongation to arachidic acid in Allium ampeloprasum microsome using [14C]-malonate after 10 to 20 min by liquid scintillation counting. In kind it is microsomes.
For experiment [9], the system named is Allium ampeloprasum. Put plainly: Inhibition of very long chain fatty acid elongase in Allium ampeloprasum microsome using C20:0 as substrate and [14C]-malonate at 1 x 10^-7 M after 10 to 20 min by liquid scintillation counting. In kind it is microsomes.
Experiment [10] relates to Allium ampeloprasum. The experiment can be described thus: Inhibition of very long chain fatty acid elongase in Allium ampeloprasum microsome using C20:0 as substrate and [14C]-malonate at 3 x 10^-8 M after 10 to 20 min by liquid scintillation counting. In kind it is microsomes.
In experiment [11] the test system is Allium ampeloprasum. The experiment can be described thus: Inhibition of very long chain fatty acid elongase in Allium ampeloprasum microsome using C20:0 as substrate and [14C]-malonate at 1 x 10^-8 M after 10 to 20 min by liquid scintillation counting. In kind it is microsomes.
Experiment [12] has as its system Allium ampeloprasum. The experiment can be described thus: Inhibition of very long chain fatty acid elongase in Allium ampeloprasum microsome using [14C]-malonate assessed per vial at 0.1 uM after 10 to 20 min by liquid scintillation counting. In kind it is microsomes.
Experiment [13] relates to Allium ampeloprasum. The experiment can be described thus: Inhibition of very long chain fatty acid elongase in Allium ampeloprasum microsome using C20:0 as substrate and [14C]-malonate at 3 x 10^-9 M after 10 to 20 min by liquid scintillation counting. In kind it is microsomes.
Experiment [14] deals with Allium ampeloprasum. The experiment can be described thus: Inhibition of very long chain fatty acid elongase in Allium ampeloprasum microsome using C20:0 as substrate and [14C]-malonate at 1 x 10^-5 M after 10 to 20 min by liquid scintillation counting. In kind it is microsomes.
Experiment [15] has as its system Allium ampeloprasum. Put plainly: Inhibition of very long chain fatty acid elongase in Allium ampeloprasum microsome using C18:0 as substrate and [14C]-malonate at 1 x 10^-6 M after 10 to 20 min by liquid scintillation counting. Type of experiment: microsomes.
Experiment [16] relates to Allium ampeloprasum. Put plainly: Inhibition of very long chain fatty acid elongase in Allium ampeloprasum microsome using C18:0 as substrate and [14C]-malonate at 1 x 10^-5 M after 10 to 20 min by liquid scintillation counting. Type of experiment: microsomes.
Experiment [17] relates to Allium ampeloprasum. The experiment can be described thus: Inhibition of very long chain fatty acid elongase in Allium ampeloprasum microsome using C20:0 as substrate and [14C]-malonate at 1 x 10^-4 M after 10 to 20 min by liquid scintillation counting. Type of experiment: microsomes.
The test system of experiment [18] is Allium ampeloprasum. Put plainly: Inhibition of very long chain fatty acid elongase in Allium ampeloprasum microsome using C20:0 as substrate and [14C]-malonate at 1 x 10^-6 M after 10 to 20 min by liquid scintillation counting. In kind it is microsomes.
Experiment [19] deals with Allium ampeloprasum. Put plainly: Inhibition of very long chain fatty acid elongase in Allium ampeloprasum microsome using C18:0 as substrate and [14C]-malonate at 1 x 10^-4 M after 10 to 20 min by liquid scintillation counting. In kind it is microsomes.
Experiment [20] relates to Allium ampeloprasum. Put plainly: Competitive inhibition of very long chain fatty acid elongase in Allium ampeloprasum microsome using C18:0-CoA as substrate after 10 min by Lineweaver-Burk plot analysis. In kind it is microsomes.

On to `CCC1(CC2(c3cccc(Cl)c3)CO2)C(=O)c2ccccc2C1=O` (stereo not drawn) [(RS)-INDANOFAN], for which the inhibition (INH) in experiment [1] turned out to be 19%; in experiment [2], 49%; in experiment [4], 9%; in [6], 82%; in [9], 60%; in [10], 31%. The results for the inhibition (INH) in [11] and in experiment [13] were 11% and 8%, respectively. The figures for the IC50 in experiment [3] and in experiment [7] were 0.03 µM and 0.071 µM, respectively. Also, the ED50 in experiment [5] was found to be 0.0524 KgAi/ha. In experiment [8], the inhibition is 86%. In experiment [12], the INH is 3.6 pmol.
Consider `CCC1(C[C@@]2(c3cccc(Cl)c3)CO2)C(=O)c2ccccc2C1=O` [(R)-INDANOFAN], for which the IC50 in experiment [3] and in experiment [7] was over 1000 µM in each case. Besides, in experiment [5], the ED50 result was “inactive”. The inhibition (INH) in [14] was found to be 27%; in experiment [15] it was 14%; in experiment [9], 9%; in [16], 23%; in experiment [17] it was 38%; in experiment [18] it was 18%. The inhibition (INH) in [19] was found to be 25%.
Regarding `CCC1(C[C@]2(c3cccc(Cl)c3)CO2)C(=O)c2ccccc2C1=O` [(S)-INDANOFAN], the inhibition (INH) was 30% in experiment [1]; 71% in [2]; 7% in experiment [4]; 93% in experiment [6]; 76% in experiment [9]; 54% in [10]. Further, the inhibition (INH) in experiment [11] amounted to 31%; in [13] it was 15%. Further, the values for the IC50 in [3] and in experiment [7] were 0.017 µM and 0.025 µM, respectively. The ED50 in [5] is 0.0254 KgAi/ha. Moreover, the inhibition result in experiment [20] was “Active”.
